Measured values reported in PubChem BioAssay AID489041 (Sanford-Burnham Center for Chemical Genomics, 2010).
Active and inactive are the calls of the source. The rule behind the calls is not given here.

Test system: HEK-293T NF-kB luciferase reporter counterscreen, luminescence
Assay: NF-kB reporter inhibition in HEK-293T, dose response, counter-screen for T-cell antigen receptor NF-kB inhibitors, HEK-293T cells, luminescence (AID 489041)

SMILES | IC50
COC(=O)C[C@]1(C(=O)OC)CN(C#N)N(c2ccc(Cl)cc2)C12c1ccccc1-c1ccccc12 | 20.1 µM (inactive)
Cc1ccc2nc(SCC(=O)Nc3cc(C(F)(F)F)ccc3N3CCOCC3)[nH]c2c1 | 25.6 µM (inactive)
Cc1cc(C)cc(C(=O)N2CC(=O)Nc3ccccc32)c1 | 4.64 µM
CC(=O)N(C)C1=C(N2CCOCC2)C(=O)c2ccccc2C1=O | 5.29 µM
Cc1ccc(N/C(N)=N/c2nc(CSc3nnc(C)s3)cc(=O)[nH]2)c(C)c1 | 4.17 µM
CCn1cc(C(=O)NC2CCCc3c2cnn3-c2cccc(C)c2C)cn1 (configuration not stated) | 14.7 µM
Cc1ccnc2c1ccc1c(C)ccnc12 | > 80 µM (inactive)
CCC(=O)N1c2ccc(S(=O)(=O)N3CCN(c4ccc([N+](=O)[O-])cc4)CC3)cc2CC1C (configuration not stated) | > 80 µM (inactive)
COc1ccc(/C=C2/C(=O)OCc3cc(OC)c(OC)cc32)cc1 | 12 µM
CCn1c2ccccc2c2cc(NC(=O)c3cc(OC)cc(OC)c3)ccc21 | > 80 µM (inactive)
COc1ccc(-[n+]2c(-c3ccccc3)cc(-c3ccc(C)cc3)cc2-c2ccccc2)cc1 | 3.61 µM
COc1cc(NC(=O)N2CCNC2=O)cc(C(=O)Nc2cccc(C(F)(F)F)c2)c1 | 2.17 µM
Cc1ccc(Oc2ccc(OCC(=O)Nc3ccncc3)cc2)cc1 | 0.62 µM
CC(=O)N1c2ccc(S(=O)(=O)N3CCC(C(=O)Nc4cccc(C)n4)CC3)cc2CC1C (configuration not stated) | 5.57 µM
O=C(Nc1ccc(S(=O)(=O)N2CCN(Cc3ccccc3)CC2)cc1)c1cnccn1 | 1.51 µM
Cc1c(C(=O)N/N=C/c2ccc(Cl)cc2)[nH]c2ccc(Cl)cc12 | 1.95 µM
C[C@@H]1O[C@@H](O[C@H]2C[C@@H](O)[C@]3(CO)[C@@H]4C(CC[C@]3(O)C2)[C@@]2(O)CC[C@H](C3COC(=O)C3)[C@@]2(C)C[C@H]4O)[C@H](O)[C@H](O)[C@H]1O (some centres not stated) | 0.69 µM
Cc1ccc(C[n+]2c(-c3ccc(C)cc3)cc(-c3ccc(C)cc3)cc2-c2ccc(C)cc2)cc1 | 1.19 µM
O=C(N/N=C/c1c(O)ccc2ccccc12)c1cccc(C(F)(F)F)c1 | 3.01 µM
Oc1ccc2ccccc2c1N=Nc1ccccn1 | > 80 µM (inactive)
CCN(CC)S(=O)(=O)c1cc(NC(=O)CNc2cccc(S(=O)(=O)N3CCCC3)c2)ccc1C | 2.52 µM
Cc1csc2sc(-c3ccnc(SCC(=O)NCc4ccccc4)n3)c(C)c12 | 3.8 µM
O=C(Nc1ccc(N2CCCCC2)cc1)c1ccccn1 | 3.23 µM
Cc1ccc(O)c(NC(=O)CCC2CCCCC2)c1 | > 80 µM (inactive)
COC(=O)c1nn(-c2ccc3c(c2)CCN3C(C)=O)cc1O | 3.87 µM
Cc1cc(C(=O)N2CC=C(c3ccccc3)CC2)c2ccccc2n1 | 5.69 µM

SMILES | IC50
CCCC(=O)NC(c1ccccc1Cl)c1ccc2cccnc2c1O (configuration not stated) | > 80 µM (inactive)
C/C=C(\C)C(=O)N[C@@H](c1ccccc1)[C@@H](O)C(=O)O[C@H]1C[C@@]2(O)[C@@H](OC(=O)c3ccccc3)C3[C@](C)(C(=O)[C@H](OC(C)=O)C(=C1C)C2(C)C)[C@H](O)C[C@H]1OC[C@@]31OC(C)=O (some centres not stated) | > 80 µM (inactive)
CN(C)S(=O)(=O)c1ccc(Nc2nc(C3CC3)nc3c2nnn3Cc2ccccc2Cl)cc1 | 4.04 µM
O=c1oc2ccccc2cc1-c1cn(-c2ccccc2)c(=S)[nH]1 | 4.59 µM
COc1ccccc1C(=O)N(CCC1CCCN1C)c1nc2ccccc2s1 (configuration not stated) | 18.6 µM
O=C1c2c(O)ccc(O)c2C(=O)c2c(NCCNCCO)ccc(NCCNCCO)c21 | 10.7 µM
COc1cccc2sc(Nc3nnc(-c4ccccc4Cl)o3)nc12 | > 80 µM (inactive)
COC(=O)c1ccccc1NC1=C/C(=N\S(=O)(=O)c2cccs2)c2ccccc2C1=O | 1.04 µM
Cn1c(SC2=CS(=O)(=O)c3ccccc32)nc2ccccc21 | 12.2 µM
Cc1cc(C)cc(NS(=O)(=O)c2ccc(-c3cnc(C4CC4)o3)cc2)c1 | 1.8 µM
CCn1c2ccccc2c2cc(NC(=O)c3cc(OC)c(OC)c(OC)c3)ccc21 | 3.97 µM
O=C(Nc1ccc(F)cc1)c1ccc(CN2CCc3ccccc3C2)cc1 | 4.71 µM
Cc1cccc(OCCNC(=O)c2ccc(Cl)c(S(=O)(=O)NCc3cccnc3)c2)c1 | 10.1 µM
CC(C)(C)c1cc(C=C(C#N)C#N)cc(C(C)(C)C)c1O | 13.1 µM
COc1ccc(OC)c(NS(=O)(=O)c2ccc(N3CCCC3=O)cc2)c1 | 4.36 µM
COc1ccc(/C=N\NC(=O)c2ccccc2F)cc1COc1ccc(F)cc1F | 8.43 µM
CN(C)c1ccc(-c2nn3c(-c4ccccc4Cl)nnc3s2)cc1 | 19.8 µM
CC1=CC(C)(C)N(S(=O)(=O)c2ccc(C)cc2)c2cc(C)ccc21 | 2.17 µM
O=C(Nc1ccc(Oc2cccnc2)nc1)c1ccc(C(F)(F)F)cc1 | 1.52 µM
CCCC(=O)Nc1nc2ccc(NC(=O)c3c(F)c(F)c(OC)c(F)c3F)cc2s1 | > 80 µM (inactive)
O=[N+]([O-])c1ccc(O)c(/C=N/Nc2ccc(Cl)nn2)c1 | > 80 µM (inactive)
C=C1C(=O)C=C2CN(C(=O)c3ccccc3)[C@@](Cc3ccc(F)cc3)(C(=O)OC)[C@@H]12 | 11 µM
Cc1nc(Nc2nc3c(c(=O)[nH]2)CCC3)nc2ccccc12 | 40.1 µM (inactive)
COc1cccc(-c2cc(C(=O)Nc3cc(C)n(Cc4ccc(Cl)cc4)n3)no2)c1 | 4.24 µM
COc1ccc2c(C)nc(Nc3nc(-c4ccccc4)cc(=O)[nH]3)nc2c1 | 1.54 µM
O=S(=O)(c1ccc2c(c1)OCCO2)N1CCN(c2ncnc3sccc23)CC1 | 2.44 µM

SMILES | IC50
Cc1nc(NCc2ccco2)c2c(C)c(C)sc2n1 | 1.82 µM
C[C@]12CCC3C(CCC4=CC(O)CC[C@@]43/C=N/O)C1(O)CCC2C1=CC(=O)OC1 (some centres not stated) | 0.33 µM
Cc1ccc(C(=O)c2cc([N+](=O)[O-])ccc2N2CCOCC2)c(C)c1 | 4.92 µM
CCCc1cc(C(=O)Nc2cc(C)ccc2O)no1 | > 80 µM (inactive)
COc1ccc(CNS(=O)(=O)c2cc(-c3cc(C)no3)ccc2C(C)C)cc1 | 10.9 µM
CCOC(=O)/C=C/S(=O)(=O)c1ccc(NC(C)=O)cc1 | 20.1 µM (inactive)
COc1cc(C2C3=C(Nc4ncnn42)c2ccccc2CC3)cc(OC)c1OC (configuration not stated) | 0.83 µM
CCCSc1nnc(Sc2nnnn2-c2ccccc2)s1 | 9.43 µM
COc1ccc(C2=NOC(C(=O)NCc3ccc(F)cc3)C2)cc1OC (configuration not stated) | 14.7 µM
CC(C)Nc1ccc(C(CC(N)=O)NC(=O)c2ccc(Br)cc2)cc1[N+](=O)[O-] (configuration not stated) | > 80 µM (inactive)
COC(=O)C1=C(CN2CCCc3ccccc32)NC(=O)NC1c1ccc(F)cc1 (configuration not stated) | 5.33 µM
C=CC[C@@H](CC/C=C/C=C/CC/C=C\[C@@H]1CSC([C@@H]2C[C@@H]2C)=N1)OC | 3.72 µM
Cc1ccc(-n2ncc3c(N4CCN(c5ccccc5)CC4)ncnc32)c(C)c1 | 3.24 µM
Cc1ccc(C(=O)O/N=C(\N)c2ccccn2)c(C)c1 | 0.53 µM
CCOC(=O)C(C)Oc1cccc2c(=O)n(CC(=O)NCc3ccccc3)ccc12 (configuration not stated) | 0.78 µM
COc1cccc(CN(C)C(=O)c2cc(COc3ccc4ncccc4c3)on2)c1 | 1.9 µM
Clc1ccc2c(c1)C(C1=NCCN1)c1ccccc1CS2 (configuration not stated) | > 80 µM (inactive)
COc1ccc(-n2cc(-c3ccc(C)cc3)[n+]3c2SCC3)cc1 | 5.82 µM
COc1ccc(C(=O)N2CCN(c3ccc([N+](=O)[O-])c(NCCc4ccc(OC)c(OC)c4)c3)CC2)cc1 | 0.31 µM
O=C(c1cn(Cc2ccccc2)nc1-c1ccccc1)N1CCN(c2ccccn2)CC1 | > 80 µM (inactive)
CCOC(=O)COc1cccc2c(=O)n(CC(=O)NCc3ccc(F)cc3)ccc12 | < 0.16 µM
O=S1(=O)C=C(Sc2nc3cc(Cl)ccc3o2)c2ccccc21 | 20.8 µM (inactive)
CCOc1ccccc1C1CC(=O)Nc2cc(C)c(C)cc21 (configuration not stated) | 7.75 µM
CCCCCCCCn1c2c(c(=N)c3c1CCC3)CCCC2 | 1.43 µM
Cc1ccc2oc(/N=C(\N)NC(=O)C(C)(C)C)nc2c1 | < 0.16 µM
Cc1ccc(C(=O)Nc2cc3ccccc3oc2=O)cc1 | 0.94 µM

SMILES | IC50
Cc1ccc2c(c1)Oc1ccc(NC(=O)CCl)cc1C(=O)N2 | 2.71 µM
C[C@]12CC[C@H](O)C[C@H]1CC[C@@H]1[C@@H]2C[C@@H](O)[C@]2(C)[C@@H](C3=CC(=O)OC3)CC[C@]12O | 0.58 µM
COc1ccc(OC)c(COC(=O)c2cc([N+](=O)[O-])ccc2N2CCOCC2)c1 | 52.4 µM (inactive)
Cc1cc(-n2c(C)cc(C(=O)CSc3ncnc4ccccc34)c2C)no1 | 3 µM
CCOC(=O)c1ccc2nc(Nc3nc4ccc(F)cc4s3)sc2c1 | 1.14 µM
CCCc1cc(C(=O)N/N=C/c2ccc(CC)s2)c2ccccc2n1 | 2.47 µM
COc1cc(C(=O)OCCc2cc3ccccc3c(=O)o2)cc(OC)c1OC | 14.9 µM
CCOC(=O)Nc1nc(-c2ccccc2)c(C(=O)c2ccc(Cl)cc2)s1 | 3.06 µM
O=C1CC(c2cc(F)ccc2F)c2cc3c(cc2N1)CCC3 (configuration not stated) | 4.69 µM
O=C(Nc1ccn(Cc2ccccc2F)n1)c1ccc(COc2ccc(Br)cc2)cc1 | 1.55 µM
CCOc1cc(C#N)c(NC(=O)c2cccnc2)cc1OCC | 37.7 µM (inactive)
COC(=O)c1[nH]c2ccc(F)cc2c1NS(=O)(=O)c1ccc(OC)cc1 | 11.8 µM
CCCC[C@@H](C)C[C@@H](C)C(=O)N(C)[C@@H](CC(C)C)C(=O)N[C@H](C(=O)N(C)[C@H](C(=O)N1C[C@@H](O)C[C@H]1C(=O)N1C(=O)C=C[C@@H]1C)C(C)C)C(C)OC(C)=O (some centres not stated) | < 0.16 µM
CSc1nccc(-c2nn(-c3ccc(C)cc3)ccc2=O)n1 | 6.22 µM
CC1Cc2cc(-c3csc(NC(=O)Cc4cccs4)n3)ccc2N1S(C)(=O)=O (configuration not stated) | 2 µM
O=C(O)c1ccc(-c2ccc(-c3ccccc3)cc2)s1 | 9.3 µM
COc1cc(Cn2c(-c3nonc3N)nc3ccccc32)ccc1C | 1.08 µM
Cn1c2c(c(=O)n(C)c1=O)C(C(F)(F)F)(C(F)(F)F)N=C(c1ccc(Cl)cc1)N2 | 1.62 µM
Cc1nc2c(=O)n(C)c(=O)nc-2n(C)n1 | 1.88 µM
COc1ccc(NC(=O)/C(Cl)=C(/Cl)S(=O)Cc2ccccc2Cl)cn1 (configuration not stated) | 3.95 µM
O=S(=O)(Nc1cccc2ncccc12)c1cccs1 | > 80 µM (inactive)
Cc1nnc(N/N=C/c2ccccn2)[nH]c1=O | > 80 µM (inactive)
Cc1cccc(N2CCN(C(=O)c3ccc4[nH]c(C)c(C)c4c3)CC2)c1C | 19.2 µM
COC(=O)C1CN(C#N)N(c2ccc(Cl)cc2)C12c1ccccc1-c1ccccc12 (configuration not stated) | 15.7 µM
